# Test results from PubChem BioAssay (NCI).
#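 Protocol summary: plate cells (96-well), add compound at 5 concentrations, incubate 48 h, interpolate endpoints linearly. Here, GI50 denotes the concentration required for 50% inhibition of growth. TGI: concentration producing complete growth inhibition.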
# Columns and labels:
# Test in all cases: inhibition of tumour cell growth, NCI panel, 48 h
# A498 renal = test system: A498 renal
# HT29 colon = test system: HT29 colon
# LOX IMVI melanoma = test system: LOX IMVI melanoma
# MDA-MB-231 breast = test system: MDA-MB-231 breast
# OVCAR-5 ovarian = test system: OVCAR-5 ovarian
# SK-OV-3 ovarian = test system: SK-OV-3 ovarian
# SN12C renal = test system: SN12C renal
# SNB-75 CNS = test system: SNB-75 CNS
# NCI-H522 lung = test system: NCI-H522 lung
Structure (SMILES),TGI (A498 renal) [µM],TGI (HT29 colon) [µM],TGI (LOX IMVI melanoma) [µM],TGI (MDA-MB-231 breast) [µM],TGI (OVCAR-5 ovarian) [µM],TGI (SK-OV-3 ovarian) [µM],TGI (SN12C renal) [µM],TGI (SNB-75 CNS) [µM],TGI (NCI-H522 lung) [µM],GI50 (A498 renal) [µM],GI50 (HT29 colon) [µM],GI50 (LOX IMVI melanoma) [µM],GI50 (MDA-MB-231 breast) [µM],GI50 (NCI-H522 lung) [µM],GI50 (OVCAR-5 ovarian) [µM],GI50 (SN12C renal) [µM],GI50 (SNB-75 CNS) [µM]
COc1ccc(/C=N\N2CC(=O)N3C4C=CC(CC4)N3C2=O)cc1 (stereo unspecified),> 100,> 100,> 100,> 100,> 100,> 100,> 100,> 100,,,,,,,,,
C[C@]12CC[C@H]3[C@@H](CCC4=CC(=O)C=C[C@@]43O)[C@@H]1CCC2=O,> 100,,> 100,> 100,> 100,,> 100,> 100,,,,,,,,,
O=C(CCc1cccc(O)c1)NCCc1cccc(O)c1,> 100,> 100,> 100,> 100,> 100,> 100,> 100,,> 100,,,,,,,,
N/C(=N\N=C\c1ccc2c(c1)OCO2)NO,56.5,> 100,82.5,> 100,> 100,> 100,> 100,,> 100,,,,,,,,
COc1c2occc2c(OC)c2c(=O)c(S(=O)(=O)NC(=O)Nc3ccc(Cl)cc3)coc12,> 10,> 10,> 10,> 10,> 10,> 10,> 10,,> 10,,,,,,,,
CC(=O)Nc1ccc(S(=O)(=O)Nc2nnc(S(N)(=O)=O)s2)cc1,> 100,> 100,> 100,> 100,> 100,> 100,,> 100,> 100,,,,,,,,
Cc1cc2c(cc1-c1cc3c(cc1C)C(C(C)C)=C(O)C(=O)/C3=C\Nc1nc(-c3ccccc3)cs1)/C(=C/Nc1nc(-c3ccccc3)cs1)C(=O)C(O)=C2C(C)C,98.6,50.2,,28.5,,95.2,48.4,> 100,,,,,,,,,
COc1cc(Oc2nc3ccccc3nc2C(=O)O)cc(OC)c1OC,> 100,> 100,> 100,> 100,> 100,> 100,,> 100,> 100,,,,,,,,
CC1(CCCC2(C)CCNC2=O)OCCO1 (stereo unspecified),> 10,> 10,> 10,> 10,> 10,> 10,> 10,> 10,,,,,,,,,
O=S(=O)(c1cc(Cl)ccc1Cl)N1CCN(S(=O)(=O)c2cc(Cl)ccc2Cl)CC1,> 100,> 100,,> 100,30,,> 100,> 100,> 100,,,,,,,,
CCN(CC)CCCCCCCCNc1c2ccc(Cl)cc2nc2ccc(OC)cc12,2.78,2.25,4.94,3.09,3.99,,3.73,3.15,3.81,1.41,0.597,1.48,1.48,1.8,1.64,1.64,1.49
Cc1cc(O)c(C(C)C)cc1NC(=O)Nc1cccc2ccccc12,26.5,36.1,49.9,31.7,56.4,,40.5,,54.1,,,,,,,,
C(=N\Nc1ncc(-c2cc3cc4c(cc3o2)OCO4)s1)/c1c[nH]c2ccccc12,,> 100,1.7,,,,3.98,2.89,,,3.32,0.426,,,,0.374,1.4
Cc1ccccc1N=C(N)NC#N,,> 100,> 100,> 100,> 100,> 100,> 100,> 100,,,,,,,,,
CC(=O)NC1(C)CCC(C(C)(C)NC(C)=O)CC1 (stereo unspecified),> 100,> 100,> 100,> 100,> 100,> 100,> 100,> 100,,,,,,,,,
CC(=O)Nc1ccc2c(C(=O)O)c(C)c(=O)[nH]c2n1,,> 100,,> 100,> 100,> 100,> 100,,> 100,,,,,,,,
CCSc1ncnc2c(C3OC(CO)C(O)C3O)nsc12 (stereo unspecified),> 100,> 100,> 100,> 100,> 100,> 100,> 100,> 100,,,,,,,,,
CCOC(=O)C1=CN=C2C(=O)N(c3ccccc3)N(C)C2(C)C1=N (stereo unspecified),> 100,,> 100,> 100,> 100,> 100,> 100,> 100,> 100,,,,,,,,
CCCSc1cc(Cl)c(C)cc1S(=O)(=O)n1ccnc1OCCCN(C)C,> 100,> 100,> 100,> 100,> 100,> 100,> 100,,> 100,,,,,,,,
O=C1C=Cc2c(Cl)sc(Cl)c21,16.1,3.34,1.89,> 100,24.8,28.5,> 100,13.1,,,,,,,,,
c1ccc2c(c1)c1c(n2CCOCCN2CCCCC2)CCCC1,,24.6,28.3,24.4,25.7,34.9,27.4,26.7,,,,,,,,,
O=S(=O)(c1ccccc1)n1c(C(O)c2ccncc2)cc2ccccc21 (stereo unspecified),> 100,> 100,> 100,> 100,> 100,> 100,> 100,> 100,,,,,,,,,
Cc1nc2c(cc1C(=O)NN)c(=O)n(C)c(=O)n2C,,> 100,,> 100,> 100,> 100,> 100,> 100,,,,,,,,,
CC(=O)N1N=C(c2c(O)ccc3ccccc23)CC1C(=O)c1ccco1 (stereo unspecified),> 100,> 100,,74.6,> 100,> 100,> 100,> 100,> 100,,,,,,,,
O=C(O)CC(NC(=O)Nc1ccc([N+](=O)[O-])cc1)C(=O)Nc1ccc([N+](=O)[O-])cc1 (stereo unspecified),> 100,> 100,> 100,> 100,> 100,> 100,,> 100,> 100,,,,,,,,
